Data published in patent US7767411B2, “Assay system for specific inhibitors of protein kinase C-related kinases” (Universitaetsklinikum Freiburg, priority 2004, dated 2010).

Experiments:
protein kinases = settings: described in S. P. Davies et al.; cited from earlier work
[1] = system: androgen receptor (AR) activation by RhoA V14; assay: ligand-dependent activation of the androgen receptor (AR) by RhoA V14, MMTV-LUC reporter in 293 cells; format: cell-based; settings: RhoA V14 plasmid, with or without R 1881 10^-10 M, 5×10^−7 M Ro31-8220
Description: In another preferred embodiment, the assay system comprises the reaction of the ligand-dependent activation of the androgen receptor (AR) by RhoA V 14. […] Reference is made, in this respect, to FIG. 2.

MCF-7 cells = assay: androgen receptor agonist R 1881-induced cell proliferation in MCF-7 cells; format: cell-based; settings: presence or absence of R1881, FIG. 3
Protocol: The inventors studied the cell proliferation inter alia in MCF-7 cells which is induced by the androgen receptor agonist R 1881 under the activating/promoting action of PRKs. MCF-7 cells were cultivated in RPMI 1640 supplemented with 2 g/l NaHCO3, L-Glu, Pen/Strep, 10% FCS (fetal calf serum), and insulin 1U/ml in the presence or absence of R1881 and Ro31-8220 at the indicated concentrations. The cell proliferation assay was performed according to the manufacture's instructions (Roche, #1647229).

Structure (SMILES) | protein kinases acted on (specificity) (protein kinases) | agonist-dependent androgen receptor (AR) activation by RhoA V14 [1] | R 1881-induced cell proliferation (MCF-7 cells)
C[C@@H](N)[C@H]1CC[C@H](C(=O)Nc2ccncc2)CC1 [Y 27632] | act on PRKs, but also on MSK1, ROCK-II and MAPKAP-K1b | – | –
Cn1cc(C2=C(c3cn(CCCSC(=N)N)c4ccccc34)C(=O)NC2=O)c2ccccc21 [Ro31-8220] | act on PRKs, but also on MSK1, S6K1 and other protein kinases | abolished | inhibited
